Source: patent US4499082A, “α-Aminoboronic acid peptides” (E. I. Du Pont de Nemours and Company, priority 1983, dated 1985)
pKi: −log10 of the molar value. Like-named read-outs stand apart in the source and are kept apart here.

Legend:
hamsters = conditions: intratracheal administration; cited from earlier work
chymotrypsin = chymotrypsin (Bos taurus, UniProt P00766); conditions: Matteson et al.; cited from earlier work
[1] = hamster, in vivo
Experimental: Plasma, 5 μL, containing various concentrations of inhibitor, or a dilution thereof, was incubated with 10 μL of a stock solution of 1.15×10^-5 M pancreatic elastase, in a final volume of 0.40 mL 0.10M Hepes buffer, pH 7.5, containing 0.5M NaCl at 25°. After 5 minutes incubation, 1.60 mL additional buffer and 20 μL of a 0.20M MeOSuc-AlaAlaPro-Val-pNA solution in dimethylsulfoxide was added and the increase in absorbance at 405 nm monitored. Levels of inhibitor were determined from a standard curve of % activity vs. inhibitor concentration.
FIG. 1 illustrates results of experiments in which hamsters, 50 days old, weighing 80-90 g, were administered MeOSu-AlaAlaPro-Boroval-pinacol in 1.0 mL saline at intraperitoneal dosage levels of 400, 200 and 100 mg/kg. At the indicated time intervals, blood samples (50-100 μL) were withdrawn by cardiac puncture from animals lightly anesthetized with ether, and elastase inhibitor levels determined. Normal plasma EIC is 14 μM.

[2] = tested on: experimentally-induced emphysema in hamsters; conditions: intraperitoneally; cited from earlier work
[3] = plasma incubated at 4°
Experimental: The stability of inhibitory capacity provided by MeOSuc-AlaAlaPro-Boroval-OH in plasma was determined by incubating samples of plasma containing inhibitor at 4° for 24 hours, followed by assays for inhibitory capacity conducted as above.

neutrophil elastase [4] = target: T1, neutrophil elastase (Homo sapiens, UniProt P08246); assay: Kinetic constants for interaction with human neutrophil elastase (Table 1); format: biochemical; parameters: Neutrophil elastase was prepared by the procedure described by Baugh. et al; from tissue
T1 sequence (P08246 30-267): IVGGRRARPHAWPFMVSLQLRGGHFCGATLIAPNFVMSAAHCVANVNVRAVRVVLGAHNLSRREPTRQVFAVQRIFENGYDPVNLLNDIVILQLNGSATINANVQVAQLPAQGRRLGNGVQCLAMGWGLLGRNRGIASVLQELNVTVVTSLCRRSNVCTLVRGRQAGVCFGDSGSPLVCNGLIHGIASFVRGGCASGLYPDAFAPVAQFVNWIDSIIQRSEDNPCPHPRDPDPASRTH
Experimental: A more extensive evaluation of the kinetic constants for interaction of human neutrophil elastase with MeOSuc-AlaAlaPro-Boroval-OH were determined by methods substantially similar to those disclosed by Schloss, et al., Biochemistry 19:2358 (1980), who describe the following equation describing reversible, tight binding inhibition: [drawing 13]
As determined herein, Ki (initial)=k2 /k1; Ki (final)=(k2 /k1)k4 /(k3 +k4); and […]; E=[Enzyme]; I=[inhibitor]; EI and EI*=[enzyme-inhibitor complexes].
Ki (initial) was determined from initial velocity studies, according to the method of Lineweaver and Burk. Substrate concentration was varied from 0.80-0.04 mM, and concentration of inhibitor (MeOSuc-AlaAlaPro-Boroval-OH) was 200 nM. Observed inhibition appeared to be competitive, since double reciprocal plots of initial velocity vs. substrate concentration intercepted the y-axis at the same point.
The data were fitted to the following equation: P=P0 +(vi -vf)/k+vf t+(vf -vi)e^-kt /k. P is the concentration of product at time t, vi is the initial velocity, vf is the final steady state velocity, k is the first order rate constant and P0 is the concentration of product at t=0. Values of Ki (initial) and Ki (final) were then determined from plots of velocity^-1 vs. concentration of inhibitor using the method described by Dixon, Biochem. J. 55:170 (1953).

neutrophil elastase [5] = target: T1, neutrophil elastase; assay: Inhibition of neutrophil elastase, additional peptide inhibitors preincubated in phosphate buffer (Table 3); format: biochemical; parameters: Neutrophil elastase was prepared by the procedure described by Baugh. et al; from tissue; conditions: Conc. 1.0 × 10^-7 M
Experimental: Additional peptide inhibitors were evaluated by a procedure similar to that described above. Stock solutions of inhibitors (1.00 mM) were prepared in dimethylsulfoxide and compounds were diluted to 0.10 mM with […], pH 7.5, yielding the free boronic acid. After incubation for one hour at about 23°, inhibitors were added to assay solutions (2.00 mL) consisting of […] MeOSuc-Ala-AlaProVal-p-nitroanilide in 0.10M Hepes buffer, pH 7.5, containing 0.50M NaCl. Assays were initiated by addition of 0.50 μg neutrophil elastase. Control assays without inhibitor indicated an initial velocity of 0.0195 min^-1. The value "k" in Table 3, below, is an estimate of the first order rate constant for time-dependent inhibition, as described above for MeOSuc-AlaAlaPro-Boroval-OH (Table 1).

α-chymotrypsin = target: T2, α-chymotrypsin (Bos taurus, UniProt P00766); conditions: competitive inhibitor; Lindquist et al.; cited from earlier work
T2 construct: purchased

emphysema in mice = conditions: cited from earlier work
neutrophil elastase [6] = target: T1, neutrophil elastase; conditions: cited from earlier work
[7] = target: Porcine pancreatic elastase (Sus scrofa, UniProt P00772); assay: Inhibition of pancreatic elastase; format: biochemical; conditions: inhibitor 5 × 10^4 nM
Experimental: Porcine pancreatic elastase (9.8 U/mg.) was obtained from commercial sources. […] Reactions were initiated by addition of 0.5 μg of elastase in 0.020 mL of 0.020M sodium acetate buffer, pH 6.0, and hydrolysis of substrate was monitored spectrophotometrically at 405 nm at 25° C. Assay results are set forth in Table 4, below, expressed as percentages of activity of control mixtures to which no inhibitor was added: […]

Bovine α-chymotrypsin = target: T3, Bovine α-chymotrypsin (Bos taurus, UniProt P00766); assay: Inhibition of α-chymotrypsin; format: biochemical; conditions: inhibitor 100 nM; N.T (no detectable time dependence)
T3 construct: purchased
Experimental: Bovine α-chymotrypsin, obtained from commercial sources, was used to prepare stock solutions. […] Reactions were initiated by the addition of 0.040 μg of enzyme and increases in absorbance were monitored spectrophotometrically at 405 nm at 25°.

neutrophil elastase [8] = target: T1, neutrophil elastase; assay: Inhibition of neutrophil elastase (Table 2); format: biochemical; parameters: Neutrophil elastase was prepared by the procedure described by Baugh. et al; from tissue; conditions: inhibitor 5,000 nM
Experimental: Neutrophil elastase was prepared by the procedure described by Baugh. et al., Biochemistry 15:836 […]. Enzyme assays were conducted substantially according to the procedure disclosed by Nakajima, et al., J. Biol. […] Inhibitors were evaluated by comparing enzymatic activity measured in the presence and absence of inhibitor.

Porcine pancreatic elastase, sequence (P00772 27-266): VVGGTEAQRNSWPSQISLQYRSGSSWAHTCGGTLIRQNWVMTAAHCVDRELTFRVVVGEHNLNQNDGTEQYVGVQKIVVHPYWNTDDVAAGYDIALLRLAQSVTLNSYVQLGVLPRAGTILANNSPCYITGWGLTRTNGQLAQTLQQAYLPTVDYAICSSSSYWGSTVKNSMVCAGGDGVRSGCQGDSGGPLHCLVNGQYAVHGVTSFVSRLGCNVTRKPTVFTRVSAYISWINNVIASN

N-succinyl-L-alanyl-L-alanyl-L-prolyl-L-valine chloromethyl ketone [Suc-Ala-Ala-Pro-ValCH2 Cl]
effectiveness (hamsters): effective

CC(=O)N[C@@H](Cc1ccccc1)B(O)O [(R)-1-acetamido-2-phenylethaneboronic acid]
pKi (chymotrypsin): 5.40

COC(=O)CCC(=O)N[C@@H](C)C(=O)N[C@@H](C)C(=O)N1CCC[C@H]1C(=O)NC(B1OC(C)(C)C(C)(C)O1)C(C)C (stereo partly drawn) [MeOSuc--Ala--Ala--Pro--Boroval--pinacol, MeOSuc-AlaAlaPro-Boroval-pinacol]
elevation of plasma EIC [1]: at least 10 fold

N-acetyl-L-alanyl-L-alanyl-L-prolyl-L-alanine chloromethyl ketone [Ac-Ala-Ala-Pro-AlaCH2 Cl]
block of experimentally-induced emphysema [2]: effectively block experimentally-induced emphysema

COC(=O)CCC(=O)N[C@@H](C)C(=O)N[C@@H](C)C(=O)N1CCC[C@H]1C(=O)NC(B(O)O)C(C)C (stereo partly drawn) [MeOSuc--Ala--Ala--Pro--Boroval--OH, MeOSuc-AlaAlaPro-Boroval-OH]
% Activity, Plasma + Inhibitor ([3]; t = 0 hr.): 18.5%
% Activity, Plasma + Inhibitor ([3]; t = 48 hr.): 17%
pKi (neutrophil elastase [4]; initial velocity studies, Lineweaver and Burk, inhibitor 200 nM, read-out: Ki Initial): 6.82
pKi (neutrophil elastase [4]; progressive inhibition, Dixon plot, t = 0, inhibitor 30-300 nM, read-out: Ki Initial): 7.04
pKi (neutrophil elastase [4]; progressive inhibition, Dixon plot, t = infinity, equilibrium, read-out: Ki Final): 8.21
% Initial Activity (neutrophil elastase [5]): 61%
k, first order rate constant for time-dependent inhibition (neutrophil elastase [5]): 0.27 min⁻¹

O=C(NCB(O)O)c1ccccc1 [N-benzoylaminomethaneboronic acid]
pKi (α-chymotrypsin): 5.40 to 6.00

N-methoxysuccinyl-L-alanyl-L-alanyl-L-prolyl-L-valine chloromethyl ketone [MeOSuc-Ala-Ala-Pro-ValCH2 Cl]
effectiveness (emphysema in mice; administered more than fifteen minutes prior to intrapulmonary instillation of elastase): ineffective
treatment of emphysema (emphysema in mice; given orally): effective agent in the treatment of emphysema
concentration exhibiting inhibitory activity (neutrophil elastase [6]): 25 µM

CC(C)(C)OC(=O)N[C@@H](Cc1ccccc1)C(=O)N1CCC[C@H]1C(=O)N[C@@H](Cc1ccccc1)B1OC(C)(C)C(C)(C)O1 [Boc--Phe--Pro--Borophe--pinacol, Boc-PhePro-Borophe-pinacol]
Activity % of Control ([7]; 0.5 min): 69.1 % of Control
Activity % of Control ([7]; 4.0 min): 21 % of Control
Activity % of Control (Bovine α-chymotrypsin): 69 % of Control
% Activity (neutrophil elastase [8]; 0.5 min): 42%
% Activity (neutrophil elastase [8]; 2 min): 23%
% Activity (neutrophil elastase [8]; 4 min): 17%
